{"source": "paper PMC9747239", "about": "“State-selective modulation of heterotrimeric Gαs signaling with macrocyclic peptides” (Cell, 2022)", "key": {"[1]": {"target": "T1, Gαs/GDP (Homo sapiens, UniProt P63092)", "T1 construct": "hexahistidine (N, cleaved yes); made in house; host or cells: E. coli BL21(DE3)", "T1 sequence (P63092 with tags, fused parts or gaps isoform P63092-2)": "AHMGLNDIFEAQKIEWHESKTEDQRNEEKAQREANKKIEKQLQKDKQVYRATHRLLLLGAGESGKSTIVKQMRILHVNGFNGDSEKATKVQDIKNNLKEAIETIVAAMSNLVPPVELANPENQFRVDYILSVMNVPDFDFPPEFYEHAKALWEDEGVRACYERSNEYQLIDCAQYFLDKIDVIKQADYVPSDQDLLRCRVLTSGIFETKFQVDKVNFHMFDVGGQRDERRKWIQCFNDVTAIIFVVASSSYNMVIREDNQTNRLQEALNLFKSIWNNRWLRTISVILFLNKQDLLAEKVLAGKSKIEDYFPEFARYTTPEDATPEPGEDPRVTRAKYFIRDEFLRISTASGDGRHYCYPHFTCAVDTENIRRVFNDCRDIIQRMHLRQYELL", "assay": "Bio-layer interferometry (BLI), GDP-bound Gαs", "details": "read-out: KD, binding to Gαs/GDP", "experimental": "BLI experiments were performed using an OctetRED384 instrument from ForteBio. All experiments were performed at 25°C using BLI buffer (10 mM HEPES pH 7.4, 150 mM NaCl, 1mM MgCl2, 0.05% Tween 20, 0.1% DMSO, 0.2 mM GNP or GDP). Cyclic peptides or Gα proteins were diluted to a series of concentrations (Final concentrations were indicated in Figures) in BLI buffer plus 10 μM Biotin. Assays were conducted in Greiner 384well, black, flat bottom polypropylene plates containing the protein solutions, BLI buffer plus 10 μM Biotin for dissociation, and serial dilutions of cyclic peptides to be tested.\nBiotinylated proteins or cyclic peptides were immobilized on Streptavidin biosensors by dipping sensors into plate wells containing protein solutions at a concentration of 50–150 nM. Protein loading is around 2–3 nm. Cyclic peptide loading is around 0.2–0.3 nm. Sensors loaded with proteins or cyclic peptides were moved and dipped into wells with BLI buffer plus 10 μM Biotin to block unlabeled Streptavidin. […]\nRaw kinetic data collected were processed with the Data Analysis software provided by the manufacturer using single reference subtraction in which buffer-only reference was subtracted (For GN13 analysis). […] The resulting data were analyzed based on a 1:1 binding model from which kon and koff values were obtained and then Kd values were calculated."}, "[2]": {"target": "T2, Gαs (Homo sapiens, UniProt P63092)", "T2 construct": "vector His tag with thrombin/Drice site (removed); made in house; host or cells: E. coli BL21(DE3)", "T2 sequence (P63092 with tags, fused parts or gaps isoform P63092-2)": "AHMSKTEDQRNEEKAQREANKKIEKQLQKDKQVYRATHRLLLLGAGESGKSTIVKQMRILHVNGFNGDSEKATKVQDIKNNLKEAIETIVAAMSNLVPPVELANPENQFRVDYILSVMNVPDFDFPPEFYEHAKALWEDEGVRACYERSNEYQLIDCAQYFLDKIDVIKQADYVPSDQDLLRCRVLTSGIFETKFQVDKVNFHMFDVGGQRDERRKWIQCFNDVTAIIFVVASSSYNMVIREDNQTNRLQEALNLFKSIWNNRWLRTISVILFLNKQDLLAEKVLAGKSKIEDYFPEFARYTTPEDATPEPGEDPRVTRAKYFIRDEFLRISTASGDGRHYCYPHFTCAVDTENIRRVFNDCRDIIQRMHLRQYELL", "assay": "Steady-state GTPase assay, Gαs short isoform", "assay_type": "biochemical", "details": "read-out: IC50, inhibition of Gαs steady-state GTPase activity", "experimental": "(§1) WT Gαs (both short and long) was diluted to a 6 μM stock (4X) in GTPase assay buffer (20 mM HEPES 7.5, 150 mM NaCl, 1 mM MgCl2). The protein was 1:1 (v/v) diluted with 4X cyclic peptide stock (0, 1.56, 3.12, 6.25, 12.5, 25, 50, 100 μM) in GTPase assay buffer, and incubated at 37°C for an hour. The samples were then 1:1 (v/v) diluted with reaction buffer (20 mM HEPES 7.5, 150 mM NaCl, 1 mM MgCl2, and 1 mM GTP) and incubated at 37°C. After 30, 50, 70, 90 min, 50 μL of the sample was removed to measure the inorganic phosphate (Pi) concentration by PiColorLock Phosphate Detection kit. A standard curve was made using the 0.1 mM Pi stock in the kit. Final [cyclic peptide]: 0, 0.39, 0.78, 1.56, 3.12, 6.25, 12.5, 25 μM; Final [Gαs]: 1.5 μM; Final [GTP]: 500 μM."}, "[3]": {"target": "T3, long isoform of Gαs (Homo sapiens, UniProt P63092)", "T3 construct": "made in house; host or cells: E. coli BL21(DE3)", "assay": "Steady-state GTPase assay, Gαs long isoform", "assay_type": "biochemical", "details": "read-out: IC50, inhibition of steady-state GTPase activity of long isoform of Gαs", "experimental": "as §1"}, "[4]": {"target": "T4, Gαs/GDP and Gβγ(C68S) (Homo sapiens, UniProt P63092)", "T4 construct": "hexahistidine (N, cleaved yes); made in house; host or cells: E. coli BL21(DE3) (Gαs); Sf9 insect cells (Gβ1γ2)", "assay": "FRET based Gαs/Gβγ interaction assay", "assay_type": "binding", "details": "FRET, Gαs/GDP 4 nM, Gβ1/γ2(C68S) 2 nM; read-out: IC50, inhibition of Gαs/Gβγ interaction"}, "[5]": {"assay": "Chemical stability assay in DMEM with 10% FBS", "assay_type": "in vitro ADME", "details": "bovine, DMEM with 10% FBS (fetal bovine serum), 37 °C, values represent 95% confidence intervals, read-out: Half-life (hour), chemical stability in DMEM with 10% FBS", "experimental": "(§2) These assays were conducted by Pharmaron Beijing CO., Ltd. Cyclic peptides working solutions were prepared at 10 μM in DMEM with 10% FBS (Avantor, Cat# 76,294–180) or human plasma (Pooled, Male & Female, BioIVT, Cat# HMN666664). The assays were performed in duplicate. Vials were incubated at 37 °C at 60 rpm in a water bath and taken at designated time points including 0, 480, 1080 and 1440 min. For each time point, the initiation of the reaction was staggered so all the time points were terminated with cold acetonitrile containing internal standards (IS, 100 nM alprazolam, 200 nM labetalol, 200 nM Imipramine and 2 μM ketoplofen) at the same time. Samples were vortexed then centrifuged at 4°C to remove proteins. The supernatants from centrifugation were diluted by ultra-pure H2O and used for LC-MS/MS analysis. All calculations were carried out using GraphPad Prism. Remaining percentages of parent compounds at each time point were estimated by determining the peak area ratios from extractedion chromatograms."}, "[6]": {"assay": "Plasma stability assay", "assay_type": "in vitro ADME", "details": "both sexes, pooled human plasma, 37 °C, values represent 95% confidence intervals, read-out: Half-life (hour), plasma stability", "experimental": "as §2"}}, "note": "Where a SMILES comes first, the peptide text is derived from it. Bridges are numbered along the chain shown (N, C = ends). [ ]: non-standard residue; d: D form.", "data": [{"smiles": "CC[C@H](C)[C@@H]1NC(=O)[C@H](CC(C)C)NC(=O)[C@@H](Cc2ccc(O)cc2)NC(=O)CSC[C@@H](C(=O)NCC(N)=O)NC(=O)[C@@H]2CCCN2C(=O)[C@H](CC(C)C)NC(=O)[C@H](CC(N)=O)NC(=O)[C@H](Cc2ccccc2)NC(=O)[C@H](C)NC(=O)[C@H](Cc2c[nH]c3ccccc23)NC(=O)[C@H](CCC(N)=O)NC(=O)[C@H](CCCNC(=N)N)NC(=O)[C@H](Cc2ccccc2)NC(=O)[C@H]([C@@H](C)O)NC1=O", "note": "[GD20] ({CH2CO}-[dY]LITFRQWAFNLPCG-NH2; thioether N-14)", "values": [{"measurement": "Kd", "setting": "[1]", "result": "31.4 ± 0.7", "unit": "nM"}, {"measurement": "IC50", "setting": "[2]", "result": "1150 ± 160", "unit": "nM"}, {"measurement": "IC50", "setting": "[3]", "result": "1320 ± 170", "unit": "nM"}, {"measurement": "IC50", "setting": "[4]", "result": "18.4 ± 2", "unit": "nM"}, {"measurement": "half-life at 10 μM", "setting": "[5]", "result": "> 142", "unit": "h"}, {"measurement": "half-life at 10 μM", "setting": "[6]", "result": "16.4 to 27.1", "unit": "h"}]}]}
